Laboratory results published in patent publication US20070142321A1, “METHOD FOR PREVENTING GROWTH OF BACTERIA ON CONTACT LENSES WITH EYE DROPS” (priority 2005, published 2007).

Legend:
microbes [1] = assay: Amount of Alexidine required to disinfect the solutions; type: cell-based; conditions: in Formulae 1-4
Procedure: (§1) For the purposes of this patent application a disinfecting amount is an amount of an antimicrobial agent that passes the Stand Alone Disinfecting Efficacy Test by the Food and Drug Administration (510k) of the United States of America in a minimum of three out of four test samples in a test solution that is diluted with 0.9 wt. % saline solution in a 1:1 ratio of test solution to saline solution.
(§2) The FDA (510 (k)) Guidance Document for contact lens products defines procedures that measure the extend of viability loss of representative microorganisms at established time intervals to determine the extend of viability loss. FDA (510 (k)) Guidance Documents recommended test organisms for both disinfecting stand-alone and preservative efficacy testing are composed of three bacteria (Pseudomonas aeruginosa ATCC 9027, Stapylococcus aureus ATCC 6538, and Serratia marcescens ATCC 13880) and two fungi (Candida albicans ATCC 10231, and Fusarium solani ATCC 36031). The performance requirement biocidal stand alone testing calls for 3 log reduction for bacterial cells and 1 log reduction for each fungi. At day 28, after the rechallenge on day 14, the performance requirement for preservative efficacy testing calls for reduction of 3.0 logs per bacteria and ±0.5 for fungi.
(§3) With Alexidine, it has been discovered that approximately 1 ppm is required to disinfect each of the solutions above. […]

microbes [2] = assay: Disinfection of a contact lens removed from the eye and treated by a disinfecting/cleaning regimen; type: cell-based; conditions: Alexidine at 4.5 ppm; lens removed from the eye and treated with solution
Procedure: as §1, §2, §3

CCCCC(CC)CNC(=N)NC(=N)NCCCCCCNC(=N)NC(=N)NCC(CC)CCCC (centres unmarked) [Alexidine, 1,1′-hexamethylenebis[5-(2-ethylhexyl)biguanide]]
amount of Alexidine required to disinfect each of the solutions (microbes [1]): approximately 1 ppm | antimicrobial activity to disinfect a contact lens (microbes [2]): sufficient antimicrobial activity to disinfect a contact lens
